# From US9758492B2, “IDO inhibitors” (Bristol-Myers Squibb Company, priority 2013, dated 2017)
# Target: T1, Human IDO1 (Homo sapiens, UniProt P14902)
# T1 construct: expressed in transfected cells; host or cells: HEK293
# Assay: IDO Kynurenine Assay with Human IDO1/HEK293 Cells
# Assay type: cell-based
# Conditions: read-out: HEK human IDO-1 (IC50)
# Protocol: IDO Kynurenine Assay with Human IDO1/HEK293 Cells
# Human IDO1/HEK293 cells were seeded at 10,000 cells per 50 uL per well with RPMI/phenol red free media contains 10% FBS in a 384-well black wall clear bottom tissue culture plate (Matrix Technologies LLC) 125 nL of certain concentration of compound was then added to each well using ECHO liquid handling systems. The cells were incubated for 20 hours in 37° C. incubator with 5% CO2.
# The compound treatments were stopped by adding Trichloroacetic Acid (Sigma-Aldrich) to a final concentration at 0.2%. The cell plate was further incubated at 50° C. for 30 minute. The equal volume supernatant (20 uL) and 0.2% (w/v) Ehrlich reagent (4-dimethylaminobenzaldehyde, Sigma-Aldrich) in glacial acetic acid were mixed in a new clear bottom 384-well plate. This plate was then incubated at room temperature for 30 minute. The absorbance at 490 nm was measured on Envision plate reader.
# Compound IC50 values were calculated using the counts of 500 nM of a reference standard treatment as one hundred percent inhibition, and counts of no compound but DMSO treatment as zero percent inhibition.
# T1 sequence (P14902 whole entry): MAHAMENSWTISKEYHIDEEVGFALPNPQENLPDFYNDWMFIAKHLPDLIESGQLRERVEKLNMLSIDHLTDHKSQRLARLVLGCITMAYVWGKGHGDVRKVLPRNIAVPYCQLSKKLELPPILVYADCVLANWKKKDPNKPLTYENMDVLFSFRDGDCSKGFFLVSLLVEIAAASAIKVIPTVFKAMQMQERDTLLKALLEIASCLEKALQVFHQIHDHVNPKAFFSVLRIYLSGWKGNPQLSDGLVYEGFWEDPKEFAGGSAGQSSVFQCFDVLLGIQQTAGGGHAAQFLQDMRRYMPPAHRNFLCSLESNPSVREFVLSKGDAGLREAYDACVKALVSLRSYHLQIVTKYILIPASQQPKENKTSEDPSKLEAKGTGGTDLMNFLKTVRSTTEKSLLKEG
row,SMILES,IC50 [nM]
1,CC(C)CN(CC(C)C)c1ccc(-c2ccccc2-c2nnn[nH]2)cc1NC(=O)Nc1ccc(OC(F)F)cc1 [Example 453],9.9
2,CC(C)CN(CC(C)C)c1cc(F)c(-c2ccccc2C(=O)O)cc1NC(=O)Nc1ccc(Cl)cc1F [Example 427],1.61
3,Cc1cc(NC(=O)Nc2cc(-c3cc(F)ccc3C(=O)O)ccc2N(CC(C)C)C2CCCCC2)no1 [Example 408],10
4,CC(C)CN(CC(C)C)c1ccc(-c2ccccc2-c2nnn[nH]2)cc1NC(=O)Nc1ccc(C#N)nc1 [Example 489],220
5,CCOc1ccc(NC(=O)Nc2cc(-c3ccccc3-c3nnn[nH]3)ccc2N(C2CC2)C2CC2)cc1 [Example 544],1740

# Target: IDO (Homo sapiens, UniProt P14902)
# Sequence (P14902 whole entry): as above
# Assay: LLE_IDO_ABS_DR (IDO assay)
# Conditions: not given
row,SMILES,IC50 [nM]
1,"Cc1ccc(NC(=O)Nc2cc(-c3ccccc3C(=O)O)ccc2N(CC(F)F)C2CCCCC2)cc1 [Example 196, 4′-(cyclohexyl(2,2-difluoroethyl)amino)-3′-(3-(p-tolyl)ureido)-[1,1′-biphenyl]-2-carboxylic acid]",20
2,"Cc1ccc(NC(=O)Nc2cc(-c3ccccc3C(=O)O)ccc2N(CC2CC2)C2CCCCC2)cc1 [Example 83, 4′-(cyclohexyl (cyclopropylmethyl)amino)-3′-(3-p-tolylureido)biphenyl-2-carboxylic acid]",20
3,"C#CCOc1cccc(NC(=O)Nc2cc(-c3ccccc3-c3nnn[nH]3)ccc2N(CC(C)C)CC(C)C)c1 [Example 242, 1-(4-(diisobutylamino)-2′-(1H-tetrazol-5-yl)-[1,1′-biphenyl]-3-yl)-3-(3-(prop-2-yn-1-yloxy)phenyl)urea]",4.72
4,"Cc1ccc(NC(=O)Nc2cc(-c3cc(F)ccc3C(=O)O)ccc2N(CC(C)C)C2CCCCC2)cc1 [Example 124, 4′-(cyclohexyl(isobutyl)amino)-5-fluoro-3′-(3-p-tolylureido)biphenyl-2-carboxylic acid]",5.18
5,"CC(C)CN(c1ccc(-c2ccccc2-c2nnn[nH]2)cc1NC(=O)Nc1ccccc1F)C1CCCCC1 [Example 121, 1-(4-(cyclohexyl(isobutyl)amino)-2′-(1H-tetrazol-5-yl)biphenyl-3-yl)-3-(2-fluorophenyl)urea]",2.59
6,"CCCN(c1ccc(-c2ccccc2C(=O)O)cc1NC(=O)Nc1ccc(C)cc1)C1CCCCC1 [Example 86, 4′-(cyclohexyl(propyl)amino)-3′-(3-p-tolylureido)biphenyl-2-carboxylic acid]",4.16
7,"Cc1ccc(NC(=O)Nc2cc(-c3ccccc3C(=O)O)ccc2N(CCC(C)C(F)(F)F)C2CCCCC2)cc1 (stereo not drawn) [Example 188, 4′-(cyclohexyl(4,4,4-trifluoro-3-methylbutyl)amino)-3′-(3-(p-tolyl)ureido)-[1,1′-biphenyl]-2-carboxylic acid]",290
8,"O=C(Nc1ccc(C2CC2)c(F)c1)Nc1cc(-c2ccccc2-c2nnn[nH]2)ccc1N(CCC(F)(F)F)Cc1ccccn1 [Example 354, 1-(4-cyclopropyl-3-fluorophenyl)-3-(4-((pyridin-2-ylmethyl)(3,3,3-trifluoropropyl)amino)-2′-(1H-tetrazol-5-yl)-[1,1′-biphenyl]-3-yl)urea]",120
9,"COc1ccc(-c2ccc(N(C)C3CCCCCC3)c(NC(=O)Nc3ccc(C)cc3)c2)cc1C(=O)O [Example 78, 4′-(cycloheptyl(methyl)amino)-4-methoxy-3′-(3-p-tolylureido)biphenyl-3-carboxylic acid]",1920
10,"O=C(Nc1ccc(C2CC2)c(F)c1)Nc1cc(-c2ccccc2-c2nnn[nH]2)ccc1N(CCc1ccccc1)CCC(F)(F)F [Example 296, 1-(4-Cyclopropyl-3-fluorophenyl)-3-(4-(phenethyl(3,3,3-trifluoropropyl)amino)-2′-(1H-tetrazol-5-yl)biphenyl-3-yl)urea]",180
11,"CCCN(Cc1ccccc1)c1ccc(-c2cc(F)ccc2C(=O)O)cc1NC(=O)Nc1ccc(C)cc1 [Example 186, 4′-(benzyl(propyl)amino)-5-fluoro-3′-(3-(p-tolyl)ureido)-[1,1′-biphenyl]-2-carboxylic acid]",30
12,"Cc1ccc(NC(=O)Nc2cc(-c3ccccc3-c3nnn[nH]3)ccc2N(CCC(F)(F)F)Cc2ccc(C(F)(F)F)cc2)cc1 [Example 329, 1-(2′-(1H-tetrazol-5-yl)-4-((4-(trifluoromethyl)benzyl)(3,3,3-trifluoropropyl)amino)-[1,1′-biphenyl]-3-yl)-3-(p-tolyl)urea]",4.03
13,"Cc1ccc(NC(=O)Nc2cc(-c3ccccc3-c3nnn[nH]3)ccc2N(CC(C)C)CC(C)C)cc1F [Example 287, 1-(4-(diisobutylamino)-2′-(1H-tetrazol-5-yl)-[1,1′-biphenyl]-3-yl)-3-(3-fluoro-4-methylphenyl)urea]",4.47
14,Cc1ccc(NC(=O)Nc2cc(-c3ccccc3-c3nnn[nH]3)ccc2N2CCC(c3nc(C)no3)C2)cn1 (stereo not drawn) [Example 388],10000
15,"Cc1ccc(NC(=O)Nc2cc(-c3ccccc3-c3nnn[nH]3)ccc2N(CC2CC2)CC2CC2)cc1 [Example 66, 1-(4-(bis(cyclopropyl-methyl)amino)-2′-(1H-tetrazol-5-yl)biphenyl-3-yl)-3-p-tolylurea]",30
16,"Cc1ccc(NC(=O)Nc2cc(C3=C(c4nnn[nH]4)CCC3)ccc2N(CC(C)C)CC(C)C)cc1 [Example 164, 1-(5-(2-(1H-tetrazol-5-yl)cyclopent-1-enyl)-2-(diisobutylamino)phenyl)-3-p-tolylurea]",5.4

row,SMILES,IC50 [nM]
1,"CC(C)CN(c1ccc(-c2ccccc2C(=O)O)cc1NC(=O)Nc1ccccc1C(F)(F)F)C1CCCCC1 [Example 162, 4′-(cyclohexyl (isobutyl)amino)-3′-(3-(2-(trifluoromethyl)phenyl)ureido)biphenyl-2-carboxylic acid]",1270
2,"CCN(c1ccc(-c2ccc(OC)c(C(=O)O)c2)cc1NC(=O)Nc1ccc(C)cc1)C1CCCC1 [Example 77, 4′-(cyclopentyl(ethyl)amino)-4-methoxy-3′-(3-p-tolylureido) biphenyl-3-carboxylic acid]",3260
3,"O=C(Nc1cc(-c2ccccc2-c2nnn[nH]2)ccc1N(CCCC(F)(F)F)Cc1ccc(Cl)cc1)Nc1ccccc1C(F)(F)F [Example 321, 1-(4-((4-chlorobenzyl)(4,4,4-trifluorobutyl)amino)-2′-(1H-tetrazol-5-yl)-[1,1′-biphenyl]-3-yl)-3-(2-(trifluoromethyl)phenyl)urea]",610
4,CC(C)CN(CC(C)C)c1ccc(-c2ccccc2-c2nnn[nH]2)cc1NC(=O)Nc1ccc(C(F)(F)F)cc1 [Example 249],140
5,"Cc1ccc(NC(=O)Nc2cc(-c3ccccc3-c3nnn[nH]3)ccc2N(CCC(F)(F)F)CC2CC2)cc1 [Example 63, 1-(4-((cyclopropylmethyl) (3,3,3-trifluoropropyl)amino)-2′-(1H-tetrazol-5-yl)biphenyl-3-yl)-3-p-tolylurea]",120
6,"CC(C)CN(CC(C)C)c1ccc(-c2ccccc2-c2nnn[nH]2)cc1NC(=O)NCC1CCCCC1 [Example 268, 1-(cyclohexylmethyl)-3-(4-(diisobutylamino)-2′-(1H-tetrazol-5-yl)-[1,1′-biphenyl]-3-yl)urea]",830
7,"CCCCN(CCCC)c1ccc(-c2ccccc2C(=O)O)cc1NC(=O)Nc1ccc(C)cc1 [Example 89, 4′-(dibutylamino)-3′-(3-p-tolylureido) biphenyl-2-carboxylic acid]",50
8,"CC(C)CN(c1cc(F)c(-c2cc(F)ccc2C(=O)O)cc1NC(=O)Nc1ccccc1F)C1CCCCC1 [Example 229, 4′-(cyclohexyl(isobutyl)ami-no)-2′,5-difluoro-5′-(3-(2-fluorophenyl)ureido) biphenyl-2-carboxylic acid]",2.56
9,"Cc1ccc(NC(=O)Nc2cc(-c3ccccc3NS(=O)(=O)CC(F)(F)F)ccc2N(CC(C)C)CC(C)C)cc1 [Example 84, N-(4′-(diisobutylamino)-3′-(3-p-tolylureido)biphenyl-2-yl)-2,2,2-trifluoroethane-sulfonamide]",2110
10,"Cc1ccc(NC(=O)Nc2cc(-c3ccccc3C(=O)C(C#N)S(C)(=O)=O)ccc2N(CC(C)C)CC(C)C)cc1 (stereo not drawn) [Example 96, 1-(2′-(2-cyano-2-(methylsulfonyl)acetyl)-4-(diisobutylamino)biphenyl-3-yl)-3-p-tolylurea]",1180
11,"Cc1ccc(NC(=O)Nc2cc(-c3cc(F)ccc3C(=O)O)ccc2N(CCC2CC2)CC(C)C)cc1 [Example 130, 4′-((2-cyclopropylethyl) (isobutyl)amino)-5-fluoro-3′-(3-p-tolylureido) biphenyl-2-carboxylic acid]",40
12,"Cc1ccc(NC(=O)Nc2cc(-c3ccccc3C(=O)O)ccc2N(CC2CC2)CC2CC2)cc1 [Example 67, 4′-(bis (cyclopropylmethyl)amino)-3′-(3-p-tolylureido)biphenyl-2-carboxylic acid]",350
13,"COc1ccccc1NC(=O)Nc1cc(-c2ccccc2-c2nnn[nH]2)ccc1N(CC(C)C)CC(C)C [Example 281, 1-(4-(diisobutylamino)-2′-(1H-tetrazol-5-yl)biphenyl-3-yl)-3-(2-methoxyphenyl)urea]",1450
14,"C#Cc1ccccc1NC(=O)Nc1cc(-c2ccccc2-c2nnn[nH]2)ccc1N(CC(C)C)CC(C)C [Example 277, 1-(4-(diisobutylamino)-2′-(1H-tetrazol-5-yl)-[1,1′-biphenyl]-3-yl)-3-(2-ethynylphenyl)urea]",160
15,"CC(C)CN(CC(C)C)c1ccc(-c2ccccc2-c2nnn[nH]2)cc1NC(=O)Nc1ccc(F)c(Br)c1 [Example 258, 1-(3-bromo-4-fluorophenyl)-3-(4-(diisobutylamino)-2′-(1H-tetrazol-5-yl)-[1,1′-biphenyl]-3-yl)urea]",90
